According to ChEMBL document CHEMBL1151148, “Antitumor agents, 112. Emarginatine B, a novel potent cytotoxic sesquiterpene pyridine alkaloid from Maytenus emarginata” (1990):
Converted amounts (≈) assume the structure as drawn.

Tested on: KB
Assay: Cytotoxicity against human KB cells
Type: functional
Conditions: read-out: ED50 (the source's name)

CC(=O)OC[C@]12[C@H](OC(C)=O)[C@H](OC(C)=O)[C@@H]3[C@@H](OC(C)=O)[C@@]14O[C@@]3(C)COC(=O)c1cccnc1[C@H](C)[C@H](C)C(=O)O[C@@H]([C@H](OC(=O)c1ccc(=O)n(C)c1)[C@@H]2OC(C)=O)[C@@]4(C)O [EMARGINATINE A]
EC50: 4 µg/mL (≈ 4.45 µM)

CC(=O)OC[C@]12[C@H](OC(=O)c3ccccc3)[C@@H](OC(C)=O)[C@@H]3[C@@H](OC(C)=O)[C@@]14O[C@@]3(C)COC(=O)c1cccnc1[C@H](C)[C@H](C)C(=O)O[C@@H]([C@H](OC(=O)c1ccc(=O)n(C)c1)[C@@H]2OC(C)=O)[C@@]4(C)O [EMARGINATINE B]
EC50: 0.4 µg/mL (≈ 0.416 µM)
